Data reported in PubChem BioAssay AID248 (DTP/NCI, 2004).
Several values for one entry are separate records, joined by “and”; a condition that tells them apart may be missing. Equal values may be shown once. Toxic doses and inconclusive results are not listed. Rule as the data show it: active = T/C of 150% or more; inactive = T/C below 125%.

Tested on: L1210 leukemia ip in BDF1 mice, survival T/C
Assay: NCI In Vivo Anticancer Drug Screen. Data for tumor model L1210 Leukemia (intraperitoneal) in B6D2F1 (BDF1) mice
Conditions: endpoint: mean survival time, higher = longer survival
Summary of the method: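 Tumor was transplanted into mice, which were then dosed with test compound or vehicle alone. Survival was recorded for each group, and the treated figure was expressed relative to the control figure.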

[1] = dose: 100.0 mg/kg/injection, schedule: Q01DX009 (ip), vehicle: saline with Tween-80
[2] = dose: 200.0 mg/kg/injection, schedule: Q01DX009 (ip), vehicle: saline with Tween-80
[3] = dose: 400.0 mg/kg/injection, schedule: Q01DX009 (ip), vehicle: saline with Tween-80
[4] = dose: 100.0 mg/kg/injection, schedule: Q01DX001 (ip), vehicle: carboxymethylcellulose (CMC)
[5] = dose: 200.0 mg/kg/injection, schedule: Q01DX001 (ip), vehicle: carboxymethylcellulose (CMC)
[6] = dose: 400.0 mg/kg/injection, schedule: Q01DX001 (ip), vehicle: carboxymethylcellulose (CMC)
[7] = dose: 100.0 mg/kg/injection, schedule: Q01DX009 (ip), vehicle: saline
[8] = dose: 200.0 mg/kg/injection, schedule: Q01DX009 (ip), vehicle: saline
[9] = dose: 400.0 mg/kg/injection, schedule: Q01DX009 (ip), vehicle: saline
[10] = dose: 100.0 mg/kg/injection, schedule: Q01DX009 (ip), vehicle: Klucel (hydroxypropylcellulose) (HPC)
[11] = dose: 200.0 mg/kg/injection, schedule: Q01DX009 (ip), vehicle: Klucel (hydroxypropylcellulose) (HPC)
[12] = dose: 100.0 mg/kg/injection, schedule: Q04DX003 (ip), vehicle: saline with Tween-80
[13] = dose: 200.0 mg/kg/injection, schedule: Q04DX003 (ip), vehicle: saline with Tween-80
[14] = dose: 400.0 mg/kg/injection, schedule: Q04DX003 (ip), vehicle: saline with Tween-80

Measured: T/C

Clc1nc(Cl)c(Cl)nc1Cl
inactive: dose: 25.0 mg/kg/injection, schedule: Q01DX009 (ip), vehicle: saline with Tween-80 102 % of control | dose: 50.0 mg/kg/injection, schedule: Q01DX009 (ip), vehicle: saline with Tween-80 100 % of control | [1] 100 % of control | [2] 110 % of control | [3] 96 % of control

Cc1c2cnccc2c(C)c2c1[nH]c1ccccc12
inactive: dose: 25.0 mg/kg/injection, schedule: Q01DX Z (ip), vehicle: saline 104 % of control | dose: 50.0 mg/kg/injection, schedule: Q01DX Z (ip), vehicle: saline 102 % of control | dose: 75.0 mg/kg/injection, schedule: Q01DX Z (ip), vehicle: saline 100 % of control | dose: 100.0 mg/kg/injection, schedule: Q01DX001 (ip), vehicle: saline 97 % of control | dose: 100.0 mg/kg/injection, schedule: Q01DX Z (ip), vehicle: saline 102 % of control and 92 % of control | dose: 150.0 mg/kg/injection, schedule: Q01DX Z (ip), vehicle: saline 90 % of control | dose: 200.0 mg/kg/injection, schedule: Q01DX001 (ip), vehicle: saline 100 % of control | dose: 225.0 mg/kg/injection, schedule: Q01DX Z (ip), vehicle: saline 93 % of control | dose: 335.0 mg/kg/injection, schedule: Q01DX Z (ip), vehicle: saline 97 % of control and 98 % of control | dose: 400.0 mg/kg/injection, schedule: Q01DX001 (ip), vehicle: saline 100 % of control | dose: 500.0 mg/kg/injection, schedule: Q01DX Z (ip), vehicle: saline 113 % of control

Nc1nc(N)c(N=Nc2c(Br)cc(S(N)(=O)=O)cc2Br)c(N)n1
inactive: [4] 94 % of control | [5] 94 % of control | [6] 100 % of control

COc1ccc2c(c1)N(C(=O)C(Cl)(Cl)Cl)Cc1ccccc1C2=O
inactive: [7] 87 % of control | [8] 93 % of control | [9] 96 % of control

CCOC(=O)c1cccc2cccc(C(=O)OCC)c12
inactive: dose: 50.0 mg/kg/injection, schedule: Q01DX001 (ip), vehicle: carboxymethylcellulose (CMC) 97 % of control | [4] 101 % of control | [5] 101 % of control | [6] 97 % of control

Nc1ncnc(N2CCOCC2)n1
inactive: [4] 96 % of control | [5] 107 % of control | [6] 100 % of control

CCC[n+]1ccc(C#N)cc1
inactive: dose: 75.0 mg/kg/injection, schedule: Q01DX001 (ip), vehicle: saline 106 % of control | dose: 150.0 mg/kg/injection, schedule: Q01DX001 (ip), vehicle: saline 89 % of control

O=C(O)COc1c(Cl)cc(Cl)cc1Cl
inactive: dose: 100.0 mg/kg/injection, schedule: Q04DX002 (ip), vehicle: Klucel (hydroxypropylcellulose) (HPC) 100 % of control | dose: 200.0 mg/kg/injection, schedule: Q04DX002 (ip), vehicle: Klucel (hydroxypropylcellulose) (HPC) 100 % of control | dose: 400.0 mg/kg/injection, schedule: Q04DX002 (ip), vehicle: Klucel (hydroxypropylcellulose) (HPC) 96 % of control

Oc1c(Br)cc(Br)cc1/C=C/NC(=S)NC1CC2CC1C1C=CCC21 (stereo not given)
inactive: [10] 105 % of control | [11] 94 % of control | dose: 400.0 mg/kg/injection, schedule: Q01DX009 (ip), vehicle: Klucel (hydroxypropylcellulose) (HPC) 97 % of control

COc1ccc(C(CC(=O)c2ccccc2)Sc2ccccc2N)cc1OC (stereo not given)
inactive: dose: 50.0 mg/kg/injection, schedule: Q01DX009 (ip), vehicle: Klucel (hydroxypropylcellulose) (HPC) 97 % of control | dose: 100.0 mg/kg/injection, schedule: Q01DX005 (ip), vehicle: Klucel (hydroxypropylcellulose) (HPC) 101 % of control | [10] 94 % of control | dose: 100.0 mg/kg/injection, schedule: Q04DX002 (ip), vehicle: saline with Tween-80 98 % of control | dose: 200.0 mg/kg/injection, schedule: Q01DX005 (ip), vehicle: Klucel (hydroxypropylcellulose) (HPC) 108 % of control | [11] 94 % of control | dose: 200.0 mg/kg/injection, schedule: Q04DX002 (ip), vehicle: saline with Tween-80 106 % of control | dose: 400.0 mg/kg/injection, schedule: Q04DX002 (ip), vehicle: saline with Tween-80 113 % of control

CC/C(=N/O)c1ccc(O)cc1O
inactive: [1] 106 % of control | [12] 101 % of control | [2] 106 % of control | [13] 101 % of control | [14] 101 % of control

O=C1OC(c2ccccc2)C=C1Nc1ccccc1 (stereo not given)
inactive: [12] 95 % of control | [13] 95 % of control | [14] 91 % of control

CCc1n[nH]c(C(N)=O)c1O
inactive: dose: 100.0 mg/kg/injection, schedule: Q01DX001 (ip), vehicle: gum acacia 103 % of control | [7] 108 % of control | dose: 200.0 mg/kg/injection, schedule: Q01DX001 (ip), vehicle: gum acacia 101 % of control | [8] 104 % of control | dose: 400.0 mg/kg/injection, schedule: Q01DX001 (ip), vehicle: gum acacia 106 % of control | [9] 100 % of control

CCOC(=O)c1ccc(NC(=S)Nc2ccc(C(=O)OCC)cc2)cc1
inactive: [1] 95 % of control | [12] 89 % of control | [2] 93 % of control | [13] 87 % of control | [3] 95 % of control | [14] 94 % of control

O=P(OCc1ccccc1)(N(CCCl)CCCl)N1CCCC1 (stereo not given)
inactive: dose: 16.0 mg/kg/injection, schedule: Q01DX Z (ip), vehicle: saline 92 % of control | dose: 32.0 mg/kg/injection, schedule: Q01DX Z (ip), vehicle: saline 90 % of control | dose: 64.0 mg/kg/injection, schedule: Q01DX Z (ip), vehicle: saline 101 % of control | dose: 128.0 mg/kg/injection, schedule: Q01DX Z (ip), vehicle: saline 106 % of control

Nc1ncnc2c1ncn2C(/C=N/Nc1ccccc1)OC(/C=N\Nc1ccccc1)CO (stereo not given)
inactive: dose: 100.0 mg/kg/injection, schedule: Q01DX001 (ip), vehicle: other 106 % of control | dose: 200.0 mg/kg/injection, schedule: Q01DX001 (ip), vehicle: other 108 % of control

Cc1c2oc3c(C)c([N+](=O)[O-])cc(C(=O)NC4C(=O)NC(C(C)C)C(=O)N5CCCC5C(=O)N(C)CC(=O)N(C)C(C(C)C)C(=O)OC4C)c3nc-2c(C(=O)NC2C(=O)NC(C(C)C)C(=O)N3CCCC3C(=O)N(C)CC(=O)N(C)C(C(C)C)C(=O)OC2C)c(N)c1=O (stereo not given)
inactive: dose: 75.0 micrograms/kg/injection, schedule: Q01DX009 (ip), vehicle: saline + alcohol 110 % of control | dose: 100.0 micrograms/kg/injection, schedule: Q01DX009 (ip), vehicle: saline + alcohol 116 % of control | dose: 150.0 micrograms/kg/injection, schedule: Q01DX009 (ip), vehicle: saline + alcohol 111 % of control | dose: 300.0 micrograms/kg/injection, schedule: Q01DX009 (ip), vehicle: saline + alcohol 108 % of control | dose: 400.0 micrograms/kg/injection, schedule: Q01DX009 (ip), vehicle: saline + alcohol 96 % of control | dose: 400.0 micrograms/kg/injection, schedule: Q04DX003 (ip), vehicle: saline + alcohol 124 % of control | dose: 600.0 micrograms/kg/injection, schedule: Q04DX003 (ip), vehicle: saline + alcohol 119 % of control | dose: 800.0 micrograms/kg/injection, schedule: Q04DX003 (ip), vehicle: saline + alcohol 106 % of control | dose: 1200.0 micrograms/kg/injection, schedule: Q04DX003 (ip), vehicle: saline + alcohol 111 % of control
